In one assay the target is T1, TrkA (Homo sapiens, UniProt P04629).
T1 construct: The kinase domain of the human TrkA receptor is expressed in Sf9 insect cells as a histidine (His)-fusion protein; His; made in house; host or cells: Sf9 insect cells (baculovirus)
Kind of assay: TrkA tyrosine kinase assay (33P phosphorylation of polyGluTyr by recombinant enzyme). The settings on record: recombinant kinase domain of human TrkA, PGT substrate, 30 uM ATP. The class given is biochemical. An excerpt:
The ability of compounds of the present invention to inhibit tyrosine kinase activity of TrkA may be measured using a recombinant enzyme in an assay that measures the ability of compounds to inhibit the phosphorylation of the exogenous substrate, polyGluTyr (PGT, Sigma™, 4:1). The kinase domain of the human TrkA receptor is expressed in Sf9 insect cells as a histidine (His)-fusion protein using a baculovirus expression system. The protein is purified from the lysates of these cells using an Ni-NTA affinity column. After the recombinant enzyme is purified, it is activated by incubation with cold ATP. The enzyme assay is performed in a 96-well plate. Test compounds are first dissolved in dimethylsulfoxide (DMSO) and then serially-diluted in a 96-well plate. The serially-diluted compounds are transferred to the 96-well assay plate so that the final concentration of DMSO in the enzyme assay is 1.64%. All assay components are diluted in phosphorylation buffer (20 mm MOPS, 10 mM MgCl2, 1 mM EDTA, 0.015% Brij-35, 0.1 mg/ml BSA, 0.0025% Beta-Mercaptoethanol). The recombinant enzyme is added to the assay plate containing test compound and the reaction is initiated with a substrate solution containing a final concentration of 0.1 mg/ml PGT, 30 uM ATP, and 0.008 mCi/ml ^33P-gammaATP (3000 Ci/mmol)(Perkin Elmer™) After a 1 hour incubation at 30° C., the reaction is terminated with 10% TCA and incubated at 4° C. for 1 hour. The reaction is filtered onto a Unifilter® GF/C™ filter plate (Perkin Elmer™) that has been presoaked with 0.1M NaPyrophosphate. Microscint-20 (Perkin Elmer™) is then added to the dried filter plate and the captured ^33P-phosphorylated PGT is quantitated on a microscintillation plate counter (TopCount•NXT™ (Perkin Elmer™)). Inhibition of the kinase enzymatic activity by the test compound is detected by a reduction in scintillation, and the concentration of compound that is required to inhibit the signal by 50% is reported as the IC50 value for the test compound.

The next assay addresses T2, TrkB (Homo sapiens, UniProt Q16620).
T2 construct: The kinase domain of the human TrkB receptor (amino acids 526-838); His; purchased Invitrogen; host or cells: insect cells
Kind of assay: TrkB tyrosine kinase assay (33P phosphorylation of polyGluTyr by recombinant enzyme). The class given is biochemical. The following applies: recombinant kinase domain of human TrkB (amino acids 526-838), PGT substrate, 30 uM ATP. As to the method: The ability of compounds of the present invention to inhibit tyrosine kinase activity of TrkB may be measured using a recombinant enzyme in an assay that measures the ability of compounds to inhibit the phosphorylation of the exogenous substrate, polyGluTyr (PGT, Sigma™, 4:1). The kinase domain of the human TrkB receptor (amino acids 526-838) is expressed in insect cells as a histidine (His)-fusion protein and is commercially available from Invitrogen™. The enzyme assay is performed in a 96-well plate. Test compounds are first dissolved in dimethylsulfoxide (DMSO) and then serially-diluted in a 96-well plate. The serially-diluted compounds are transferred to the 96-well assay plate so that the final concentration of DMSO in the enzyme assay is 1.64%. All assay components are diluted in phosphorylation buffer (20 mm MOPS, 10 mM MgCl2, 1 mM EDTA, 0.015% Brij-35, 0.1 mg/ml BSA, 0.0025% Beta-Mercaptoethanol). The recombinant enzyme is added to the assay plate containing test compound and the reaction is initiated with a substrate solution containing a final concentration of 0.1 mg/ml PGT, 30 uM ATP, and 0.008 mCi/ml ^33P-gammaATP (3000 Ci/mmol) (Perkin Elmer™). After a 1 hour incubation at 30° C., the reaction is terminated with 10% TCA and incubated at 4° C. for 1 hour. The reaction is filtered onto a Unifilter® GF/C™ filter plate (Perkin Elmer™) that has been presoaked with 0.1M NaPyrophosphate. Microscint-20(Perkin Elmer™) is then added to the dried filter plate and the captured ^33P-phosphorylated PGT is quantitated on a microscintillation plate counter (TopCount•NXT™ (Perkin Elmer™)). Inhibition of the kinase enzymatic activity by the test compound is detected by a reduction in scintillation, and the concentration of compound that is required to inhibit the signal by 50% is reported as the IC50 value for the test compound.

T2 sequence (Q16620 510-822): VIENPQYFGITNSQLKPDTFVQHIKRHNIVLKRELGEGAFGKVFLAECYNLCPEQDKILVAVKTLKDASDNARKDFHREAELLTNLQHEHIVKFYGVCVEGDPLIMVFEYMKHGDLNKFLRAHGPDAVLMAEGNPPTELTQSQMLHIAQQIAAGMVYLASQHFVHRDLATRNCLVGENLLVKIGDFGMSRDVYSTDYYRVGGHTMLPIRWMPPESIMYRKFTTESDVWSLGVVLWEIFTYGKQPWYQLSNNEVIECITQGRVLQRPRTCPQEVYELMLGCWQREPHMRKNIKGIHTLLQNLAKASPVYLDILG
T1 sequence (P04629 510-781 limits assumed): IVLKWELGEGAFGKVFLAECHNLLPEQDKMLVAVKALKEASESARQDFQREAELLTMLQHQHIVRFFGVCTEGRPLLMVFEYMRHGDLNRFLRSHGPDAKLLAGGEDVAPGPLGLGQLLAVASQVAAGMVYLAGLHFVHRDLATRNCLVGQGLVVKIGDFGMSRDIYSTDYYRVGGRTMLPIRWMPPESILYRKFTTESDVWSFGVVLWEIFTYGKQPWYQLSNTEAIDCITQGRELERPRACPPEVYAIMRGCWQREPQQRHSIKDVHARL

For orientation: IC50 means the midpoint of a concentration-inhibition curve. Consider `C[C@H](Nc1nc(Nc2cc(C3CC3)n[nH]2)c2cccn2n1)c1ccc(F)cc1` [Compound 2, N^4-(3-cyclopropyl-1H-pyrazol-5-yl)-N^2-((1S)-1-(4-fluorophenyl)ethyl)pyrrolo[2,1-f][1,2,4]triazine-2,4-diamine], for which the IC50 stood at 0.0001 µM on TrkA and 0.0003 µM at TrkB.

On to `Cc1cc(Nc2nc(NC3CCCCC3)nn3cccc23)[nH]n1` [Compound 9, N^2-cyclohexyl-N^4-(5-methyl-1H-pyrazol-3-yl)pyrrolo[2,1-f] [1,2,4]triazine-2,4-diamine], for which the IC50 was 0.074 µM at TrkA and 0.225 µM at TrkB.

`NC1CCCC(Nc2nc(Nc3cc(C4CC4)n[nH]3)c3cccn3n2)C1` (centres unmarked) [Compound 12, N^2-(3-aminocyclohexyl)-N^4-(3-cyclopropyl-1H-pyrazol-5-yl) pyrrolo[2,1-f][1,2,4]triazine-2,4-diamine]: the IC50 came out at 0.006 µM on TrkA and 0.035 µM on TrkB.

With `C[C@H](Nc1nc(Nc2cc(-c3ccccc3)n[nH]2)c2cccn2n1)c1ccc(F)cc1` [Compound 28, N^2-((1S)-1-(4-fluorophenyl)ethyl)-N^4-(3-phenyl-1H-pyrazol-5-yl) pyrrolo[2,1-f][1,2,4]triazine-2,4-diamine], the IC50 at TrkA and at TrkB was 0.0007 µM each time.

Consider `O[C@H]1CC[C@H](Nc2nc(Nc3cc(C4CC4)n[nH]3)c3cccn3n2)CC1` [Compound 38, trans-4-((4-((3-cyclopropyl-1H-pyrazol-5-yl)amino)pyrrolo[2,1-f] [1,2,4]triazin-2-yl)amino) cyclohexanol], for which the values for the IC50 on TrkA and on TrkB were 0.0005 µM and 0.0009 µM, respectively.

On to `CCC(O)CNc1nc(Nc2cc(C3CC3)n[nH]2)c2cccn2n1` (centres unmarked) [Compound 40, 1-((4-((3-cyclopropyl-1H-pyrazol-5-yl)amino)pyrrolo[2,1-f][1,2,4]triazin-2-yl)amino)-2-butanol], for which the IC50 on TrkA stood at 0.003 µM; on TrkB, 0.004 µM.

For `c1cc2c(Nc3cc(C4CC4)n[nH]3)nc(N[C@H]3CCNC3)nn2c1` [Compound 41, N^4-(3-cyclopropyl-1H-pyrazol-5-yl)-N^2-((3S)-3-pyrrolidinyl)pyrrolo [2,1-f][1,2,4]triazine-2,4-diamine], the IC50 stood at 0.018 µM on TrkA and 0.031 µM on TrkB.

For `O=C(CNc1nc(Nc2cc(C3CC3)n[nH]2)c2cccn2n1)Nc1nccs1` [Compound 43, 2-((4-((3-cyclopropyl-1H-pyrazol-5-yl)amino)pyrrolo[2,1-f][1,2,4]triazin-2-yl)amino)-N-1,3-thiazol-2-ylacetamide], the IC50 on TrkA and at TrkB was 0.0003 µM in each case.

Regarding `O=C(Nc1nccs1)[C@H](Cc1ccccc1)Nc1nc(Nc2cc(C3CC3)[nH]n2)c2cccn2n1` [Compound 44, (2S)-2-((4-((5-cyclopropyl-1H-pyrazol-3-yl)amino)pyrrolo[2,1-f][1,2,4]triazin-2-yl)amino)-3-phenyl-N-1,3-thiazol-2-ylpropanamide], the IC50 was 0.001 µM at TrkA and 0.002 µM on TrkB.

Take `CC(C)[C@H](CO)NC(=O)[C@H](C)Nc1nc(Nc2cc(C3CC3)n[nH]2)c2cccn2n1` [Compound 49, (2S)-2-((4-((3-cyclopropyl-1H-pyrazol-5-yl)amino)pyrrolo[2,1-f][1,2,4]triazin-2-yl)amino)-N-((1R)-1-(hydroxymethyl)-2-methylpropyl)propanamide]: the IC50 on TrkA was 0.012 µM; on TrkB it was 0.005 µM.

The values above are taken from US7605160B2, “Pyrrolotriazine kinase inhibitors” (Bristol-Myers Squibb Company, priority 2006, dated 2009).
